From patent US7795290B2 (Genentech, Inc., priority 2004, dated 2010)

Target: T1, AKT1 (Homo sapiens, UniProt P31749)
T1 construct: purchased Upstate 14-276
Assay: HTS ATP-utilizing enzyme assay, off-chip mobility-shift (Caliper HTS 250)
Format: biochemical
Conditions: kinase named = inhibitory activity/selectivity; test compound 10 μM; active = greater than three-sigma from mean
From the text: The following procedures describe the reagent and plate preparation for a HTS of an ATP-utilizing enzyme, such as a protein kinase, run in an off-chip mobility-shift assay format. The following provides an HTS protocol for running a protein kinase HTS screen on a Caliper HTS 250 microfluidics system. The following parameters are dependent on the protein kinase used and can be determined by one skilled in the art as part of a typical assay development process. For example, the peptide substrate used can be identified from the current literature, by screening a peptide library of potential protein kinase substrates, or by other applicable means accepted in the field.
The following table provides typical screen assay parameters appropriate for a Caliper HTS 250 microfluidics system used to assay AKT1. Parameters used to assay other protein kinases can be determined by one skilled in the art.
Assays to determine the kinase inhibitory activity of chemical entities of the present disclosure were performed using a Caliper HTS 250 microfluidics device, Greiner U-bottom assay plates, a Multidrop for transfer of reagents, and Biomek FX (AMNCBM03) software. Initially, 2.4 μL of a 1 mM solution of a test compound in 100% DMSO was added to a well of the Greiner U-bottom plate. A single Greiner U-bottom plate having 24×16 wells could include multiple test compounds. […] Using the Biomek FX, 10 μL of 0.5 M EDTA was added by the span-8 to wells, indicated as 100% Control and 2.4 μL of 100% DMSO was added by the span-8 to wells, indicated as 0% Control. […] The total reaction volume in each well was 25 μL, and the concentration of the test compound was 10 μM. The assay plate was incubated for 2.5 hrs at 20° C. to 22° C. […] The inhibition of the ATP-utilizing enzyme, such as a particular protein kinase, was determined by measuring the ratio of the peptide substrate to phosphorylated product for each well of the assay plate using the Caliper HTS 250 system.
The use of three-sigma statistical limits represents a conservative method for declaring potential hits among targets. The three-sigma activity, as well as the mean population activity, can be different for each target enzyme.
Each chemical entity listed in Table 2 was tested for protein kinase inhibitory activity according to the biological assays and definitions of protein kinase inhibitory activity as described herein.

T1 sequence (P31749 whole entry): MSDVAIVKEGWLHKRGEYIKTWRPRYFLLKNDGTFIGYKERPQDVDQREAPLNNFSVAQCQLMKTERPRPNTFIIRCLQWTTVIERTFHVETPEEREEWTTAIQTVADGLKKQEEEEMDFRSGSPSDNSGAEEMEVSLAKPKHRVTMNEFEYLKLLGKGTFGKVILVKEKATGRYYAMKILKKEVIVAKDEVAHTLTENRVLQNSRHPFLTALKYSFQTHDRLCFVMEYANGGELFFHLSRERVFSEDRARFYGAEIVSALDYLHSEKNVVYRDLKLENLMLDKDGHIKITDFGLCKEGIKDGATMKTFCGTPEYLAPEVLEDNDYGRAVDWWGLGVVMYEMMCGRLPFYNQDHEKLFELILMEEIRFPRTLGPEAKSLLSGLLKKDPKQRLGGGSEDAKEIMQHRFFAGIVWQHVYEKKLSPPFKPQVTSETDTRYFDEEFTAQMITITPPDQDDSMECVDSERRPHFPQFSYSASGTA

Activity, AKT1:
O=C(O)c1ccc(-c2csc(N(CCCN3CCOCC3)C(=O)c3cccs3)n2)cc1 [4-(2-(N-(3-morpholinopropyl)thiophene-2-carboxamido)thiazol-4-yl)benzoic acid]
COc1ccc(-c2csc(N(CCCN3CCOCC3)C(=O)c3ccc(Cl)cc3)n2)cc1 [4-chloro-N-(4-(4-methoxyphenyl)thiazol-2-yl)-N-(3-morpholinopropyl)benzamide]
COc1ccc(-c2csc(N(CCCN3CCOCC3)C(=O)c3cc(Cl)ccn3)n2)cc1 [4-chloro-N-(4-(4-methoxyphenyl)thiazol-2-yl)-N-(3-morpholinopropyl)picolinamide]
O=C(c1ccc(F)cc1)N(CCCN1CCOCC1)c1nc(-c2ccccc2)cs1 [4-fluoro-N-(3-morpholinopropyl)-N-(4-phenylthiazol-2-yl)benzamide]
COc1ccc(-c2csc(N(CCCN3CCOCC3)C(=O)c3ccc(F)cc3)n2)cc1 [4-fluoro-N-(4-(4-methoxyphenyl)thiazol-2-yl)-N-(3-morpholinopropyl)benzamide]
Cc1ccc(C(=O)N(CCCN2CCOCC2)c2nc(-c3ccccc3)cs2)cc1 [4-methyl-N-(3-morpholinopropyl)-N-(4-phenylthiazol-2-yl)benzamide]
COc1ccc(-c2csc(N(CCCN3CCOCC3)C(=O)c3ccc(Cl)s3)n2)cc1 [5-chloro-N-(4-(4-methoxyphenyl)thiazol-2-yl)-N-(3-morpholinopropyl)thiophene-2-carboxamide]
CNC(=O)[C@H]1CCCN1CCCN(C(=O)c1cccs1)c1nc(-c2cc3ccccc3o2)cs1 [(R)-1-(3-(N-(4-(benzofuran-2-yl)thiazol-2-yl)thiophene-2-carboxamido)propyl)-N-methylpyrrolidine-2-carboxamide]
O=C(O)[C@H]1CCCN1CCCN(C(=O)c1cccs1)c1nc(-c2cc3ccccc3o2)cs1 [(R)-1-(3-(N-(4-(benzofuran-2-yl)thiazol-2-yl)thiophene-2-carboxamido)propyl)pyrrolidine-2-carboxylic acid]
CN(C)C(=O)[C@@H]1CCCN1CCCN(C(=O)c1cccs1)c1nc(-c2cc3ccccc3o2)cs1 [(S)-1-(3-(N-(4-(benzofuran-2-yl)thiazol-2-yl)thiophene-2-carboxamido)propyl)-N,N-dimethylpyrrolidine-2-carboxamide]
CC(C)(C)OC(=O)[C@@H]1CCCN1CCCN(C(=O)c1cccs1)c1nc(-c2cc3ccccc3o2)cs1 [(S)-tert-butyl 1-(3-(N-(4-(benzofuran-2-yl)thiazol-2-yl)thiophene-2-carboxamido)propyl)pyrrolidine-2-carboxylate]
O=C(c1cccs1)N(CCCN1CCC[C@H]1CO)c1nc(-c2cc3ccccc3o2)cs1 [(S)—N-(4-(benzofuran-2-yl)thiazol-2-yl)-N-(3-(2-(hydroxymethyl)pyrrolidin-1-yl)propyl)thiophene-2-carboxamide]
COC[C@@H]1CCCN1CCCN(C(=O)c1cccs1)c1nc(-c2cc3ccccc3o2)cs1 [(S)—N-(4-(benzofuran-2-yl)thiazol-2-yl)-N-(3-(2-(methoxymethyl)pyrrolidin-1-yl)propyl)thiophene-2-carboxamide]
O=C(c1cccs1)N(CCCC(=O)N1c2ccccc2C[C@H]1CO)c1nc(-c2cc3ccccc3o2)cs1 [(S)—N-(4-(benzofuran-2-yl)thiazol-2-yl)-N-(4-(2-(hydroxymethyl)indolin-1-yl)-4-oxobutyl)thiophene-2-carboxamide]
O=C(Nc1ccc2c(c1)OCCO2)c1csc(N(CCCN2CCOCC2)C(=O)c2cccs2)n1 [N-(2,3-dihydrobenzo[b][1,4]dioxin-6-yl)-2-(N-(3-morpholinopropyl)thiophene-2-carboxamido)thiazole-4-carboxamide]
O=C(c1cccs1)N(CCCn1ccnc1)c1nc(-c2cc3ccccc3o2)cs1 [N-(3-(1H-imidazol-1-yl)propyl)-N-(4-(benzofuran-2-yl)thiazol-2-yl)thiophene-2-carboxamide]
O=C1CCCN1CCCN(C(=O)c1ccco1)c1nc(-c2cc(-c3ccccc3)no2)cs1 [N-(3-(2-oxopyrrolidin-1-yl)propyl)-N-(4-(3-phenylisoxazol-5-yl)thiazol-2-yl)furan-2-carboxamide]
O=C1CCCN1CCCN(C(=O)c1cccs1)c1nc(-c2cc(-c3ccccc3)no2)cs1 [N-(3-(2-oxopyrrolidin-1-yl)propyl)-N-(4-(3-phenylisoxazol-5-yl)thiazol-2-yl)thiophene-2-carboxamide]
CC(=O)NC1CCN(C(=O)CCN(C(=O)c2cccs2)c2nc(-c3cc4ccccc4o3)cs2)C1 (centres unmarked) [N-(3-(3-acetamidopyrrolidin-1-yl)-3-oxopropyl)-N-(4-(benzofuran-2-yl)thiazol-2-yl)thiophene-2-carboxamide]
CC(=O)NC1CCN(CCCN(C(=O)c2cccs2)c2nc(-c3cc4ccccc4o3)cs2)C1 (centres unmarked) [N-(3-(3-acetamidopyrrolidin-1-yl)propyl)-N-(4-(benzofuran-2-yl)thiazol-2-yl)thiophene-2-carboxamide]
CC(=O)NCCCC(=O)NCCCN(C(=O)c1cccs1)c1nc(-c2cc3ccccc3o2)cs1 [N-(3-(4-acetamidobutanamido)propyl)-N-(4-(benzofuran-2-yl)thiazol-2-yl)thiophene-2-carboxamide]
CC(=O)N1CCN(CCCN(C(=O)c2cccs2)c2nc(-c3cc4ccccc4o3)cs2)CC1 [N-(3-(4-acetylpiperazin-1-yl)propyl)-N-(4-(benzofuran-2-yl)thiazol-2-yl)thiophene-2-carboxamide]
CN1CCN(CCCN(C(=O)c2ccco2)c2nc(-c3cc(-c4ccccc4)no3)cs2)CC1 [N-(3-(4-methylpiperazin-1-yl)propyl)-N-(4-(3-phenylisoxazol-5-yl)thiazol-2-yl)furan-2-carboxamide]
CN1CCN(CCCN(C(=O)c2ccccc2)c2nc(-c3ccccc3)cs2)CC1 [N-(3-(4-methylpiperazin-1-yl)propyl)-N-(4-phenylthiazol-2-yl)benzamide]
CN1CCN(CCCN(C(=O)c2ccco2)c2nc(-c3ccccc3)cs2)CC1 [N-(3-(4-methylpiperazin-1-yl)propyl)-N-(4-phenylthiazol-2-yl)furan-2-carboxamidevv]
O=C(CCN(C(=O)c1cccs1)c1nc(-c2cc3ccccc3o2)cs1)NCC1COCCO1 (centres unmarked) [N-(3-((1,4-dioxan-2-yl)methylamino)-3-oxopropyl)-N-(4-(benzofuran-2-yl)thiazol-2-yl)thiophene-2-carboxamide]
Cc1cc(C(=O)NCCCN(C(=O)c2cccs2)c2nc(-c3cc4ccccc4o3)cs2)nn1C [N-(3-(N-(4-(benzofuran-2-yl)thiazol-2-yl)thiophene-2-carboxamido)propyl)-1,5-dimethyl-1H-pyrazole-3-carboxamide]
O=C(NCCCN(C(=O)c1cccs1)c1nc(-c2cc3ccccc3o2)cs1)c1ccncc1 [N-(3-(N-(4-(benzofuran-2-yl)thiazol-2-yl)thiophene-2-carboxamido)propyl)isonicotinamide]
COc1ccc(OC)c(-c2csc(N(CCCN3CCCCCC3)C(=O)c3ccccc3)n2)c1 [N-(3-(azepan-1-yl)propyl)-N-(4-(2,5-dimethoxyphenyl)thiazol-2-yl)benzamide]
COc1ccc(OC)c(-c2csc(N(CCCN3CCCCCC3)C(=O)c3ccco3)n2)c1 [N-(3-(azepan-1-yl)propyl)-N-(4-(2,5-dimethoxyphenyl)thiazol-2-yl)furan-2-carboxamide]
COc1ccc(OC)c(-c2csc(N(CCCN3CCCCCC3)C(=O)c3cccs3)n2)c1 [N-(3-(azepan-1-yl)propyl)-N-(4-(2,5-dimethoxyphenyl)thiazol-2-yl)thiophene-2-carboxamide]
COc1ccc(-c2csc(N(CCCN3CCCCCC3)C(=O)c3ccccc3)n2)cc1 [N-(3-(azepan-1-yl)propyl)-N-(4-(4-methoxyphenyl)thiazol-2-yl)benzamide]
